Reference: patent publication US20210047324A1 (Aptinyx Inc., priority 2018, published 2021)
Where two headings read alike, the source gives them in different places.

How the values were obtained:
NMDAR2A = target: T1, NMDAR2A (Homo sapiens, UniProt Q12879); assay: NMDAR agonist assay, [3H]MK-801 binding, NMDAR2A expressing HEK cell membranes; type: biochemical; conditions: 50 μM glutamate; for EC50: read-out: NMDAR2A B: log EC50 (converted)
T1 construct: expressed in transfected cells; host or cells: HEK cells (membrane extract)
Procedure, shortened: (§1)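 Membranes from HEK cells (300 μg protein) preincubated 15 min with 50 μM glutamate plus compound (1×10^−15–1×10^−7 M) or 1 mM glycine, then with 0.3 μCi [3H]MK-801 for 15 min at 25° C. (nonequilibrium); filter-bound DPM, baseline-subtracted, expressed as % of 1 mM glycine; EC50 and % maximum from three-parameter fit.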

NMDAR2B = target: T2, NMDAR2B (Homo sapiens, UniProt Q13224); assay: NMDAR agonist assay, [3H]MK-801 binding, NMDAR2B expressing HEK cell membranes; type: biochemical; conditions: 50 μM glutamate; for EC50: read-out: NMDAR2B B: log EC50 (converted)
T2 construct: expressed in transfected cells; host or cells: HEK cells (membrane extract)
Procedure, shortened: as §1

[1] = IV pharmacokinetics in Sprague Dawley rats; type: in vivo; conditions: rat, 2 mg/kg, normal saline; for Vd: read-out: Vss
Method: Sprague Dawley rats were dosed intravenously using a normal saline formulation containing 2 mg/kg of the compounds identified in the below table. The table below summarizes the results of the IV pharmacokinetics.

[2] = Oral pharmacokinetics in Sprague Dawley rats (plasma, brain, CSF); type: in vivo; conditions: rat
Method: In another experiment, Sprague Dawley rats were dosed per os (oral gavage) using a normal saline formulation containing 10 mg/kg of the compounds identified in the table below. Plasma, brain, and CSF samples were analyzed at various time points over a 24 hour period. The table below summarizes the results of the oral pharmacokinetics, where the first three values (Tmax, Cmax and AUClast) are plasma values.

Sprague Dawley rats = assay: Porsolt forced swim test; type: in vivo; conditions: 0.1 mg/kg
Method: A non-clinical in vivo pharmacology study (Porsolt assay) was performed to measure antidepressant-like effects. The study allowed for the evaluation of the effects of each compound on the Porsolt forced swim test as assessed by the rats' response (reduced floating time) during a 5-minute swimming test.
Male 2-3 month old Sprague Dawley rats were used (Harlan, Indianapolis, Ind.). Rats were housed in Lucite cages with aspen wood chip bedding, maintained on a 12:12 light:dark cycle (lights on at 5 AM), and given ad libitum access to Purina lab chow (USA) and tap water throughout the study.
The Porsolt forced swim test adapted for use in rats was performed as described by Burgdorf et al., (The long-lasting antidepressant effects of rapastinel (GLYX-13) are associated with a metaplasticity process in the medial prefrontal cortex and hippocampus. Neuroscience 308:202-211, 2015). Animals were placed in a 46 cm tall×20 cm in diameter clear glass tube filled to 30 cm with tap water (23±1° C.) for 15 min on the first day (habituation) and 5 min on the subsequent test day. Animals were tested 1 h or 24 h post-dosing with the test compounds or vehicle control (0.5% sodium carboxymethyl cellulose in 0.9% sterile saline). A subset of compounds tested at 1 h post-dosing was tested again 1 wk post-dosing. Animals received a 15 min habituation session 1 day before the first 5 min test. Water was changed after every other animal. Animals were videotaped, and floating time as defined as the minimal amount of effort required to keep the animals head above water was scored offline by a blinded experimenter with high inter-rater reliability (Pearson's r >0.9).

[3] = Microsomal stability (Human); type: in vitro ADME; conditions: after 60 minutes
Method: (§2) Microsomal stability of disclosed compounds was investigated. The following table indicates the percent of compound remaining after 60 minutes.

[4] = Microsomal stability (Rat); type: in vitro ADME; conditions: after 60 minutes
Method: as §2

Plasma stability (Human) = type: in vitro ADME; conditions: after 60 minutes
Method: (§3) Plasma stability of disclosed compounds was investigated. The following table indicates the percent of compound remaining after 60 minutes.

Plasma stability (Rat) = type: in vitro ADME; conditions: after 60 minutes
Method: as §3

NMDAR2C = target: T3, NMDAR2C (Homo sapiens, UniProt Q14957); assay: NMDAR agonist assay, [3H]MK-801 binding, NMDAR2C expressing HEK cell membranes; type: biochemical; conditions: 50 μM glutamate; for EC50: read-out: NMDAR2C B: log EC50 (converted)
T3 construct: expressed in transfected cells; host or cells: HEK cells (membrane extract)
Method: (§4) Assays were conducted as described by Moskal et al., “GLYX-13: a monoclonal antibody-derived peptide that acts as an N-methyl-D-aspartate receptor modulator,” Neuropharmacology, 49, 1077-87, 2005. These studies were designed to determine if the test compounds act to facilitate NMDAR activation in NMDAR2A, NMDAR2B, NMDAR2C or NMDAR2D expressing HEK cell membranes as measured by increases in [^3H]MK-801 binding.
(§5) In the assay, 300 μg of NMDAR expressing HEK cell membrane extract protein was preincubated for 15 minutes at […] in the presence of saturating concentrations of glutamate (50 μM) and varying concentrations of test compound (1×10^−15M-1×10^−7M), or 1 mM glycine. Following the addition of 0.3 μCi of [3H]MK-801 (22.5 Ci/mmol), reactions were again incubated for 15 minutes at 25° C. (nonequilibrium conditions). Bound and free [3H]MK-801 were separated via rapid filtration using a Brandel apparatus.
(§6) In analyzing the data, the DPM (disintegrations per minute) of [3H]MK-801 remaining on the filter were measured for each concentration of test compound or for 1 mM glycine. The DPM values for each concentration of a ligand (N=2) were averaged. The baseline value was determined from the best fit curve of the DPM values modeled using the GraphPad program and the log(agonist) vs. response (three parameters) algorithm was then subtracted from all points in the dataset. The % maximal [^3H]MK-801 binding was then calculated relative to that of 1 mM glycine: all baseline subtracted DPM values were divided by the average value for 1 mM glycine. The EC50 and % maximal activity were then obtained from the best fit curve of the % maximal [3H]MK-801 binding data modelled using the GraphPad program and the log(agonist) vs. response (three parameters) algorithm.
(§7) The tables below summarize the results for the wild type […] NMDAR2A, NMDAR2B, NMDAR2C, and NMDAR2D, and whether the compound is not an agonist (−), is an agonist (+), or is a strong agonist (++), where column A is based on the % maximal [3H]MK-801 binding relative to 1 mM glycine (−=0; <100%=+; and >100%=++); and column B is based on log EC50 values (0=−; ≥1×10^−9 M (e.g., −8)=+; and <1×10^−9 M (e.g., −10)=++).

NMDAR2D = target: T4, NMDAR2D (Homo sapiens, UniProt O15399); assay: NMDAR agonist assay, [3H]MK-801 binding, NMDAR2D expressing HEK cell membranes; type: biochemical; conditions: 50 μM glutamate
T4 construct: expressed in transfected cells; host or cells: HEK cells (membrane extract)
Method: as §4, §5, §6, §7

[5] = Sprague-Dawley, in vivo, iv, read-out: Cmax
[6] = Sprague-Dawley, po, per os, 10 mg/kg, plasma, read-out: Tmax
[7] = Sprague-Dawley, plasma, po, 10 mg/kg, per os
[8] = Sprague-Dawley, plasma, po, 10 mg/kg, per os 10 mg/kg
[9] = Sprague-Dawley, plasma, po, 10 mg/kg, per os, 10 mg/kg, plasma, read-out: Cmax

T4 sequence (O15399 28-1336, species assumed, other chains not shown): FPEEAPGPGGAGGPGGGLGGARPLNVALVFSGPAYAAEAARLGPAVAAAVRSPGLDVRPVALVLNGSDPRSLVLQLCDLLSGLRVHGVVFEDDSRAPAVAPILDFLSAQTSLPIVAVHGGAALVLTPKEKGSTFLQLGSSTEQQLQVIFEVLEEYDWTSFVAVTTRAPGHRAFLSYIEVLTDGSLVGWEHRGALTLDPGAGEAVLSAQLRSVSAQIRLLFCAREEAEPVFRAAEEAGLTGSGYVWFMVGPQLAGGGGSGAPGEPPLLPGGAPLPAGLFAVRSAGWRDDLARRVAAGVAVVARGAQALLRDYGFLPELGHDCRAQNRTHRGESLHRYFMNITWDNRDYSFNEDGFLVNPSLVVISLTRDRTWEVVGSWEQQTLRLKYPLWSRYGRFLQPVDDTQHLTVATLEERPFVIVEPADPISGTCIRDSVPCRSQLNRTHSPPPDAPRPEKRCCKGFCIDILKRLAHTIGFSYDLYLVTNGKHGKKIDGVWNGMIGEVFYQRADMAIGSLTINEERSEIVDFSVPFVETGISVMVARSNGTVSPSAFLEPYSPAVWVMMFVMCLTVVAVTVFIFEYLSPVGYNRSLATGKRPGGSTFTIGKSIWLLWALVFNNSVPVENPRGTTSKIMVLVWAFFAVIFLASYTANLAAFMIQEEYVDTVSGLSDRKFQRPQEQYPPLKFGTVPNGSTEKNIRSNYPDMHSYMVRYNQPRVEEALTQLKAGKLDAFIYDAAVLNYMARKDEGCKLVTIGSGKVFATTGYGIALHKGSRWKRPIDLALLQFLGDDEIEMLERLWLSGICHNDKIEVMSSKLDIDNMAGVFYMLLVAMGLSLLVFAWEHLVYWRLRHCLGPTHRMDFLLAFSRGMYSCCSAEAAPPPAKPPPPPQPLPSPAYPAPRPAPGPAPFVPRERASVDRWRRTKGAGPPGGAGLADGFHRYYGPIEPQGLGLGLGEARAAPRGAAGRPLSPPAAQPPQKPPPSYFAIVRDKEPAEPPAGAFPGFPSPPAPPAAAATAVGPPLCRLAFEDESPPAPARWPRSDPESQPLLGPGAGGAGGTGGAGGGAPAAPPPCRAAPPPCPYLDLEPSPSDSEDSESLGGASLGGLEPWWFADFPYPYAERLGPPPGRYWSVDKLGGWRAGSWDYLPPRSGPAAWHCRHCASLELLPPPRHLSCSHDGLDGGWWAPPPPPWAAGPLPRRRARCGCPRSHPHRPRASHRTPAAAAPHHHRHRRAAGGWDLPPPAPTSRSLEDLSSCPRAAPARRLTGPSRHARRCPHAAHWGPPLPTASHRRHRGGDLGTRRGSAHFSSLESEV
T2 sequence (Q13224 27-1484, species assumed, other chains not shown): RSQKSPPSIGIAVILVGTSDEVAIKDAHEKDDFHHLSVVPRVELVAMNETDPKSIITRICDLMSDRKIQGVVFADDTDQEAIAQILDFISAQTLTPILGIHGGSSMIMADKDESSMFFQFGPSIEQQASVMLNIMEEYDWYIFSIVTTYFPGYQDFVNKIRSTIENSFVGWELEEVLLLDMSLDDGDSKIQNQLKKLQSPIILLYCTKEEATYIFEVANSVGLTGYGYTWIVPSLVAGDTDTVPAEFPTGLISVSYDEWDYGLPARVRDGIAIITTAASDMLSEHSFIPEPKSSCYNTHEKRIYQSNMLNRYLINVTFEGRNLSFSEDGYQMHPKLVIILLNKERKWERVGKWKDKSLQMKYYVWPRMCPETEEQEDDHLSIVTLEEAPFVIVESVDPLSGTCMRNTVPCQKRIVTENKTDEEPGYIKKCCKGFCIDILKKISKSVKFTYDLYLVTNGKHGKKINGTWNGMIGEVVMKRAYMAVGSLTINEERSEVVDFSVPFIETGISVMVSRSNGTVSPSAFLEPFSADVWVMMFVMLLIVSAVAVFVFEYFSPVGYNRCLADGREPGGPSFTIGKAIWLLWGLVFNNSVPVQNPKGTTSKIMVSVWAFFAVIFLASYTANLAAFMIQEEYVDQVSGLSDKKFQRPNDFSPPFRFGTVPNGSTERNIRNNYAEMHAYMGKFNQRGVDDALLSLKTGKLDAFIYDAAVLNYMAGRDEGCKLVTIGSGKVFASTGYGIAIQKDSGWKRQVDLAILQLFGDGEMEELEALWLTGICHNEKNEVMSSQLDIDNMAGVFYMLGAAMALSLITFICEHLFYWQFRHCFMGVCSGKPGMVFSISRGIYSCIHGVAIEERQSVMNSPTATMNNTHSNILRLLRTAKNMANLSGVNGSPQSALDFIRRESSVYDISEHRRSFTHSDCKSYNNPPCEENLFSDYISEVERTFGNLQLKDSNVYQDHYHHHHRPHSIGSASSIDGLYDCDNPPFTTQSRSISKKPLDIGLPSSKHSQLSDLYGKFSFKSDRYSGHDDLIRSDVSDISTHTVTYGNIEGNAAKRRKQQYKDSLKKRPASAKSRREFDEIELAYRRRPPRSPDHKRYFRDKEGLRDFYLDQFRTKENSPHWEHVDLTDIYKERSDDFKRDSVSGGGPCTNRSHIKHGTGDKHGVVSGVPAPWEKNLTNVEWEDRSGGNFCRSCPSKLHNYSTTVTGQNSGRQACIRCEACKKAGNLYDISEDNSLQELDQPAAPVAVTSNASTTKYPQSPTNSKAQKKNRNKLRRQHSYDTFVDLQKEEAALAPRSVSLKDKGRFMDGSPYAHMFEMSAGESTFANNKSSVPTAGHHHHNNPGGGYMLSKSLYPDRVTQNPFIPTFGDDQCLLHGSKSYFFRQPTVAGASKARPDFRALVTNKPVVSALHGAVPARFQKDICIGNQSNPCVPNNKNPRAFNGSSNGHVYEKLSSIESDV
T3 sequence (Q14957 20-1233, species assumed, other chains not shown): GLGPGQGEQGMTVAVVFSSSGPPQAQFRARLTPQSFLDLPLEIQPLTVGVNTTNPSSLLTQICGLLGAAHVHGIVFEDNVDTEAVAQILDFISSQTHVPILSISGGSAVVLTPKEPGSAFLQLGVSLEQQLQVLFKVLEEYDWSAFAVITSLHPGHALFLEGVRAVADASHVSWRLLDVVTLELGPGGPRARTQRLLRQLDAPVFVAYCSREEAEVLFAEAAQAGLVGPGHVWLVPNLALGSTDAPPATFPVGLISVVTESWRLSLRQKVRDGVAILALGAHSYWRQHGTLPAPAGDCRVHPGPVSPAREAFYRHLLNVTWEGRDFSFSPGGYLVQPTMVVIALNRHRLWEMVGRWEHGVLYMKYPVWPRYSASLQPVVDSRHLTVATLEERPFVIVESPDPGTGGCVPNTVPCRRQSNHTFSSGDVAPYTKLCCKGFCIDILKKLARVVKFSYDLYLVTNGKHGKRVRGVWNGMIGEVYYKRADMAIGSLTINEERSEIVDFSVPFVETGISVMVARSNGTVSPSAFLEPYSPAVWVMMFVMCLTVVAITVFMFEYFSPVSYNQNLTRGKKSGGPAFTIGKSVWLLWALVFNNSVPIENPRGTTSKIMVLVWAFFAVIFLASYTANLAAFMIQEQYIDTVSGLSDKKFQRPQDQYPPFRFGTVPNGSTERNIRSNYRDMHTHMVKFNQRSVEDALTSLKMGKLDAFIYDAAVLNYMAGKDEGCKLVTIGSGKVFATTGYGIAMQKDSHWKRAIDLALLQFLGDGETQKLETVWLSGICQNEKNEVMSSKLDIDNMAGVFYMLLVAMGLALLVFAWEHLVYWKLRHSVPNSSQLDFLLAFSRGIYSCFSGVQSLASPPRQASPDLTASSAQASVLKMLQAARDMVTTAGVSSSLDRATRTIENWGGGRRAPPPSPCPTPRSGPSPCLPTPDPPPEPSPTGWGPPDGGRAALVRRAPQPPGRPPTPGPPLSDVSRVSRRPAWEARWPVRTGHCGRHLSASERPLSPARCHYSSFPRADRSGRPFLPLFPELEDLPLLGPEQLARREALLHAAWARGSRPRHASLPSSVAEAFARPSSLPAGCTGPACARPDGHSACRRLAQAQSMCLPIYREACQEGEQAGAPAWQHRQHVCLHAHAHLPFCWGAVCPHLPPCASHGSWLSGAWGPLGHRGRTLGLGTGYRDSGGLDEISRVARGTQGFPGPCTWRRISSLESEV

Row | Compound | EC50 (NMDAR2A) [nM] | EC50 (NMDAR2B) [nM] | AUC(0-t) ([1]; Sprague-Dawley, in vivo, iv) [ng·h/mL] | clearance ([1]; Sprague-Dawley, in vivo, iv) [mL/min/kg] | half-life ([1]; Sprague-Dawley, in vivo, iv) [min] | Cmax [1, 5] [ng/mL] | Vd ([1]; Sprague-Dawley, in vivo, iv) [L/kg] | Tmax [2, 6] [min] | AUC(0-t) [2, 7] [ng·h/mL] | bioavailability [2, 8] [%] | Cmax [2, 9] [ng/mL] | CSF Cmax ([2]; per os, 10 mg/kg) [ng/mL] | Brain Cmax ([2]; per os, 10 mg/kg) [ng/mL] | % reduction in float time (Sprague Dawley rats; 1 h post-dose) [%] | Significance vs. vehicle (Sprague Dawley rats; 1 h post-dose) | Microsomal (Human): percent of compound remaining [3] [%] | Microsomal (Rat): percent of compound remaining [4] [%] | Plasma (Human): percent of compound remaining (Plasma stability (Human)) [%] | Plasma (Rat): percent of compound remaining (Plasma stability (Rat)) [%] | EC50 (NMDAR2C) [nM] | other results
1 | O=C1NCC=CCC12CC(F)(F)CN2 (single isomer, unassigned) [GL-2, 3,3-difluoro-1,7-diazaspiro[4.6]undec-9-en-6-one] | < 1 | < 1 | 11500 | 2.84 | 244 | 1630 | 1.15 | 30 | 30500 | 53 | 5820 | 4433.95 | 3556.03 | 6 | No | 99 | 98 | 91 | 97 | – | –
2 | CC(=O)N1CCCC12CC=CCNC2=O (single isomer, unassigned) [GG-2, 1-acetyl-1,7-diazaspiro[4.6]undec-9-en-6-one] | < 1 | < 1 | 2550 | 13.1 | 32.4 | 3420 | 0.58 | 15 | 19600 | 100 | 9200 | 2271.94 | 1689.69 | 4 | No | 88 | 106 | 99 | 101 | – | –
3 | CC(C)(C)OC(=O)N1CCCC12CCCNC2=O (single isomer, unassigned) [EV-2, tert-butyl 6-oxo-1,7-diazaspiro[4.5]decane-1-carboxylate] | < 1 | < 1 | – | – | – | – | – | – | – | – | – | 2324.1 | 1213 | 84 | Yes | 79 | 91 | 100 | 79 | < 1 | NMDAR2A A: % maximal [3H]MK-801 binding relative to 1 mM glycine (NMDAR2A; relative to 1 mM glycine): + (<100%=+); NMDAR2B A: % maximal [3H]MK-801 binding relative to 1 mM glycine (NMDAR2B; relative to 1 mM glycine): + (<100%=+); NMDAR2C A: % maximal [3H]MK-801 binding relative to 1 mM glycine (NMDAR2C): + (<100%=+); EC50 (NMDAR2D; read-out: NMDAR2D B: log EC50 (converted)): < 1 nM; NMDAR2D A: % maximal [3H]MK-801 binding relative to 1 mM glycine (NMDAR2D): + (<100%=+); AUClast [1]: 1138.1 ng·h/mL; Cl [1]: 28.4 mL/min/kg; Cmax [1]: 2608.4 ng/mL; T1/2 [1]: 24.6 min; Vss [1]: 0.88 L/kg; % F ([2]; per os 10 mg/kg): 63%; AUC(0-last) ([2]; per os, 10 mg/kg, plasma): 3567.9 ng·h/mL; Cmax ([2]; per os, 10 mg/kg, plasma): 4346 ng/mL; Tmax ([2]; per os, 10 mg/kg, plasma): 15 min; % reduction in float time (Sprague Dawley rats; 24 h post-dose): 76%; Significance vs. vehicle (Sprague Dawley rats; 24 h post-dose): Yes
4 | O=C1NCCCC[C@]12CCCN2 [AU-1, (S)-1,7-diazaspiro[4.6]undecan-6-one] | ≥ 1 | < 1 | 1840 | 17.8 | 84.6 | 1620 | 1.63 | 60 | 6960 | 75 | 2440 | 199.26 | 514.7 | 86 | Yes | 100 | 91 | 100 | 100 | < 1 | Emax (NMDAR2A; 0.25 h, relative to 1 mM glycine, read-out: NMDAR2A A: % maximal [3H]MK-801 binding relative to 1 mM glycine): < 100%; Emax (NMDAR2B; relative to 1 mM glycine, read-out: NMDAR2B A: % maximal [3H]MK-801 binding relative to 1 mM glycine): < 100%; NMDAR2C A: % maximal [3H]MK-801 binding relative to 1 mM glycine (NMDAR2C): ++ (>100%=++); NMDAR2D A: % maximal [3H]MK-801 binding relative to 1 mM glycine (NMDAR2D): 0%
